# BigSolDB 2.1
smiles,measurement,setting,value
COc1ccc(CC(=O)O)cc1,solubility (mole fraction),"in acetonitrile, 283.15 K",0.0423
same,solubility (mole fraction),"in acetonitrile, 288.15 K",0.0499
same,solubility (mole fraction),"in acetonitrile, 293.15 K",0.0587
same,solubility (mole fraction),"in acetonitrile, 298.15 K",0.0687
same,solubility (mole fraction),"in acetonitrile, 303.15 K",0.0803
same,solubility (mole fraction),"in acetonitrile, 308.15 K",0.0941
same,solubility (mole fraction),"in acetonitrile, 313.15 K",0.112
same,solubility (mole fraction),"in acetonitrile, 318.15 K",0.135
same,solubility (mole fraction),"in acetonitrile, 323.15 K",0.166
same,solubility (mole fraction),"in anisole, 283.15 K",0.0323
same,solubility (mole fraction),"in anisole, 288.15 K",0.0425
same,solubility (mole fraction),"in anisole, 293.15 K",0.0519
same,solubility (mole fraction),"in anisole, 298.15 K",0.0626
same,solubility (mole fraction),"in anisole, 303.15 K",0.0737
same,solubility (mole fraction),"in anisole, 308.15 K",0.0858
same,solubility (mole fraction),"in anisole, 313.15 K",0.0999
same,solubility (mole fraction),"in anisole, 318.15 K",0.118
same,solubility (mole fraction),"in anisole, 323.15 K",0.139
same,solubility (mole fraction),"in isopropanol, 283.15 K",0.114
same,solubility (mole fraction),"in isopropanol, 288.15 K",0.142
same,solubility (mole fraction),"in isopropanol, 293.15 K",0.169
same,solubility (mole fraction),"in isopropanol, 298.15 K",0.198
same,solubility (mole fraction),"in isopropanol, 303.15 K",0.228
same,solubility (mole fraction),"in isopropanol, 308.15 K",0.258
same,solubility (mole fraction),"in isopropanol, 313.15 K",0.289
same,solubility (mole fraction),"in isopropanol, 318.15 K",0.323
same,solubility (mole fraction),"in isopropanol, 323.15 K",0.351
same,solubility (mole fraction),"in morpholine, 283.15 K",0.0094
same,solubility (mole fraction),"in morpholine, 288.15 K",0.0139
same,solubility (mole fraction),"in morpholine, 293.15 K",0.0185
same,solubility (mole fraction),"in morpholine, 298.15 K",0.0239
same,solubility (mole fraction),"in morpholine, 303.15 K",0.0293
same,solubility (mole fraction),"in morpholine, 308.15 K",0.0348
same,solubility (mole fraction),"in morpholine, 313.15 K",0.0404
same,solubility (mole fraction),"in morpholine, 318.15 K",0.0459
same,solubility (mole fraction),"in morpholine, 323.15 K",0.0503
same,solubility (mole fraction),"in toluene, 283.15 K",0.0166
same,solubility (mole fraction),"in toluene, 288.15 K",0.0209
same,solubility (mole fraction),"in toluene, 293.15 K",0.0264
same,solubility (mole fraction),"in toluene, 298.15 K",0.0337
same,solubility (mole fraction),"in toluene, 303.15 K",0.0415
same,solubility (mole fraction),"in toluene, 308.15 K",0.0522
same,solubility (mole fraction),"in toluene, 313.15 K",0.0641
same,solubility (mole fraction),"in toluene, 318.15 K",0.0784
same,solubility (mole fraction),"in toluene, 323.15 K",0.0941
same,solubility (mole fraction),"in water, 283.15 K",0.0011
same,solubility (mole fraction),"in water, 288.15 K",0.002
same,solubility (mole fraction),"in water, 293.15 K",0.0031
same,solubility (mole fraction),"in water, 298.15 K",0.0043
same,solubility (mole fraction),"in water, 303.15 K",0.0057
same,solubility (mole fraction),"in water, 308.15 K",0.0069
same,solubility (mole fraction),"in water, 313.15 K",0.0079
same,solubility (mole fraction),"in water, 318.15 K",0.0092
same,solubility (mole fraction),"in water, 323.15 K",0.0105
